What follows are molecules tested against recombinant DYRK1A kinase (Homo sapiens (Human), UniProt Q13627) (assay: DYRK1A kinase assay (Ser/Thr 18 peptide Z-lyte FRET)). Settings: DYRK1A kinase activity, Z-lyte Ser/Thr 18 peptide, 15 μM ATP; method text calls the value IC50; read-out: EC50 (the source's name).
Format: biochemical
Protocol: Representative compounds were screened using the assay procedure for DYRK1A kinase activity as described below.
Each compound was dissolved in DMSO as a 10 mM stock and used to prepare compound source plates. Serial dilution (1:3, 11-point dose-response curves from 10 μM to 0.00016 μM) and compound transfer was performed using the ECHO 550 (Labcyte, Sunnyvale, CA) into 1536-well black-walled round bottom plates (Coming).
The DYRK1A kinase assay was run using the Ser/Thr 18 peptide Z-lyte assay kit according to manufacturer's instructions (Life Technologies-a Division of Thermo-Fisher). This is a non-radioactive assay using fluorescence resonance energy transfer (FRET) between coumarin and fluorescein to detect kinase activity which is represented as a ratio of coumarin emission/fluorescein emission.
Briefly, recombinant DYRK1A kinase, ATP and Ser/Thr peptide 18 were prepared in 1X Kinase buffer to final concentrations of 0.25 μg/mL, 15 μM, and 4 μM respectively. The mixture was allowed to incubate with the representative compounds for one hour at room temperature. All reactions were performed in duplicate. Unphosphorylated (“0% Control”) and phosphorylated (“100% control”) forms of Ser/Thr 18 served as control reactions. Additionally, an 11-point dose-response curve of Staurosporine (luM top) was run to serve as a positive compound control.
After incubation, Development Reagent A was diluted in Development Buffer then added to the reaction and allowed to further incubate for one hour at room temperature. The plate was read at Ex 400 Em 455 to detect the coumarin signal and Ex 400 Em 520 to measure the signal (EnVision Multilabel Plate Reader, PerkinElmer).
The Emission ratio (Em) was calculated as a ratio of the coumarin (C) emission signal (at 445 nm)/Fluorescein (F) emission signal (at 520 nm). The percent phosphorylation was then calculated using the following formula: [1−((Em ratio X F100%)-C100%)/((C0%-C100%) +(Em ratio X (F100%−F0%)))]. Dose-response curves were generated, and inhibitory concentration (IC50) values were calculated using non-linear regression curve fit in the Dotmatics' Studies Software (Bishops Stortford, UK).

SMILES	IC50
COc1nc(N[C@H](C)C2CC2)nn2ccc(-c3cnc4nccn4c3)c12 [Compound 231, (R)—N-(1-Cyclopropylethyl)-5-(imidazo[1,2-a]pyrimidin-6-yl)-4-methoxypyrrolo[2,1-f][1,2,4]triazin-2-amine]	7.2 nM
CCOc1nc(NC2CC3(C2)CN(C(C)=O)C3)nn2ccc(-c3ccn4nccc4c3)c12 [Compound 99, 1-(6-((4-Ethoxy-5-(pyrazolo[1,5-a]pyridin-5-yl)pyrrolo[2,1-f][1,2,4]triazin-2-yl)amino)-2-azaspiro[3.3]heptan-2-yl)ethan-1-one]	4.5 nM
COc1nc(N[C@H]2CC[C@H](C(C)(C)O)CC2)nn2ccc(-c3cnc4nccn4c3)c12 [Compound 242, 2-(trans-4-((5-(Imidazo[1,2-a]pyrimidin-6-yl)-4-methoxypyrrolo[2,1-f][1,2,4]triazin-2-yl)amino)cyclohexyl)propan-2-ol]	4.4 nM
COc1nc(N[C@H]2CC[C@H](NC(C)=O)CC2)nn2ccc(-c3ccn4nccc4c3)c12 [Compound 18, N-(trans-4-((4-Methoxy-5-(pyrazolo[1,5-a]pyridin-5-yl)pyrrolo[2,1-f][1,2,4]triazin-2-yl)amino)cyclohexyl)acetamide]	7.4 nM
COc1nc(N[C@H]2C[C@](C)(NC(C)=O)C2)nn2ccc(-c3cc(F)c4nc(C)n(CC(F)F)c4c3)c12 [Compound 149, N-((1r,3r)-3-((5-(1-(2,2-Difluoroethyl)-4-fluoro-2-methyl-1H-benzo[d]imidazol-6-yl)-4-methoxypyrrolo[2,1-f][1,2,4]triazin-2-yl)amino)-1-methylcyclobutyl)acetamide]	1.5 nM
COc1nc(NC2CCC3(CC2)CN(C(C)=O)C3)nn2ccc(-c3ccc4nccnc4c3)c12 [Compound 389, 1-(7-((4-Methoxy-5-(quinoxalin-6-yl)pyrrolo[2,1-f][1,2,4]triazin-2-yl)amino)-2-azaspiro[3.5]nonan-2-yl)ethan-1-one]	1.3 nM
COc1nc(N[C@H]2CN(C)C[C@H]2F)nn2ccc(-c3ccc4nccnc4c3)c12 [Compound 351, N-((3S,4R)-4-Fluoro-1-methylpyrrolidin-3-yl)-4-methoxy-5-(quinoxalin-6-yl)pyrrolo[2,1-f][1,2,4]triazin-2-amine]	8.1 nM
COc1nc(N[C@H]2CCN(C3COC3)C[C@H]2F)nn2ccc(-c3ccc4nccnc4c3)c12 [Compound 374, N-((3R,4S)-3-Fluoro-1-(oxetan-3-yl)piperidin-4-yl)-4-methoxy-5-(quinoxalin-6-yl)pyrrolo[2,1-f][1,2,4]triazin-2-amine]	2.9 nM
COc1nc(N[C@H]2CC[C@](C)(O)CC2)nn2ccc(-c3ccc4nc(C)n(CC(F)F)c4c3)c12 [Compound 112, trans-4-((5-(1-(2,2-Difluoroethyl)-2-methyl-1H-benzo[d]imidazol-6-yl)-4-methoxypyrrolo[2,1-f][1,2,4]triazin-2-yl)amino)-1-methylcyclohexan-1-ol]	2.6 nM
COc1nc(NC2CCC3(CC2)CN(C(C)=O)C3)nn2ccc(-c3ccc4ncnn4c3)c12 [Compound 196, 1-(7-((5-([1,2,4]Triazolo[1,5-a]pyridin-6-yl)-4-methoxypyrrolo[2,1-f][1,2,4]triazin-2-yl)amino)-2-azaspiro[3.5]nonan-2-yl)ethan-1-one]	1.1 nM
COc1nc(N[C@H]2C[C@](C)(N)C2)nn2ccc(-c3ccc4ncnn4c3)c12 [Compound 190, trans-N^1-(5-([1,2,4]Triazolo[1,5-a]pyridin-6-yl)-4-methoxypyrrolo[2,1-f][1,2,4]triazin-2-yl)-3-methylcyclobutane-1,3-diamine]	11.5 nM
COc1nc(N[C@H]2CCN(C)C[C@H]2F)nn2ccc(-c3cnc4nccn4c3)c12 [Compound 268, N-((3R,4S)-3-Fluoro-1-methylpiperidin-4-yl)-5-(imidazo[1,2-a]pyrimidin-6-yl)-4-methoxypyrrolo[2,1-f][1,2,4]triazin-2-amine]	5 nM

Next, values leading:

IC50	SMILES
24.3 nM	Cc1nc2ccc(-c3ccn4nc(N[C@H]5CC[C@](C)(O)CC5)nc(OC5COC5)c34)cc2n1CC(F)F [Compound 508, (1r,4r)-4-((5-(1-(2,2-Difluoroethyl)-2-methyl-1H-benzo[d]imidazol-6-yl)-4-(oxetan-3-yloxy)pyrrolo[2,1-f][1,2,4]triazin-2-yl)amino)-1-methylcyclohexan-1-ol]
0.5 nM	COc1nc(N[C@H]2CC[C@@H](O)CC2)nn2ccc(-c3ccc4nnn(CC(F)F)c4c3)c12 [Compound 718, cis-4-((5-(1-(2,2-Difluoroethyl)-1H-benzo[d][1,2,3]triazol-6-yl)-4-methoxypyrrolo[2,1-f][1,2,4]triazin-2-yl)amino)cyclohexan-1-ol]
5 nM	CCO[C@H]1C[C@@H](Nc2nc(OC)c3c(-c4ccc5ncnn5c4)ccn3n2)C1 [Compound 555, 5-([1,2,4]Triazolo[1,5-a]pyridin-6-yl)-N-(cis-3-ethoxycyclobutyl)-4-methoxypyrrolo[2,1-f][1,2,4]triazin-2-amine]
6.9 nM	COc1nc(N[C@@H]2CCNCC2(F)F)nn2ccc(-c3ccc4ncnn4c3)c12 [Compound 575, (R)-5-([1,2,4]Triazolo[1,5-a]pyridin-6-yl)-N-(3,3-difluoropiperidin-4-yl)-4-methoxypyrrolo[2,1-f][1,2,4]triazin-2-amine]
1 nM	COc1nc(N[C@H]2C[C@](C)(NC(=O)C3(C#N)CC3)C2)nn2ccc(-c3ccc4ncnn4c3)c12 [Compound 563, N-((1r,3r)-3-((5-([1,2,4]Triazolo[1,5-a]pyridin-6-yl)-4-methoxypyrrolo[2,1-f][1,2,4]triazin-2-yl)amino)-1-methylcyclobutyl)-1-cyanocyclopropane-1-carboxamide]
1.1 nM	COc1nc(N[C@H]2C[C@@](C)(NC(=O)C3(C#N)CC3)C2)nn2ccc(-c3ccc4ncnn4c3)c12 [Compound 562, N-((1s,3s)-3-((5-([1,2,4]Triazolo[1,5-a]pyridin-6-yl)-4-methoxypyrrolo[2,1-f][1,2,4]triazin-2-yl)amino)-1-methylcyclobutyl)-1-cyanocyclopropane-1-carboxamide]
2.9 nM	COc1nc(N[C@H]2CCN(C3(C#N)COC3)C[C@H]2F)nn2ccc(-c3ccc4nnn(CC(F)F)c4c3)c12 [Compound 769, 3-((3R,4S)-4-((5-(1-(2,2-Difluoroethyl)-1H-benzo[d][1,2,3]triazol-6-yl)-4-methoxypyrrolo[2,1-f][1,2,4]triazin-2-yl)amino)-3-fluoropiperidin-1-yl)oxetane-3-carbonitrile]
2.8 nM	COc1nc(N[C@H]2CCN(C(C)=O)C[C@H]2F)nn2ccc(-c3cc(F)c4nnn(CC(F)F)c4c3)c12 [Compound 816, 1-((3R,4S)-4-((5-(1-(2,2-Difluoroethyl)-4-fluoro-1H-benzo[d][1,2,3]triazol-6-yl)-4-methoxypyrrolo[2,1-f][1,2,4]triazin-2-yl)amino)-3-fluoropiperidin-1-yl)ethan-1-one]
2.3 nM	COc1nc(N[C@@H]2CN(C3COC3)C[C@@H]2F)nn2ccc(-c3ccc4nc(C)n(CC(F)F)c4c3)c12 [Compound 506, 5-(1-(2,2-Difluoroethyl)-2-methyl-1H-benzo[d]imidazol-6-yl)-N-((3R,4S)-4-fluoro-1-(oxetan-3-yl)pyrrolidin-3-yl)-4-methoxypyrrolo[2,1-f][1,2,4]triazin-2-amine]
2 nM	COc1nc(NCC2(C)COC2)nn2ccc(-c3ccc4nnn(CC(F)F)c4c3)c12 [Compound 1144, 5-(1-(2,2-Difluoroethyl)-1H-benzo[d][1,2,3]triazol-6-yl)-4-methoxy-N-((3-methyloxetan-3-yl)methyl)pyrrolo[2,1-f][1,2,4]triazin-2-amine]
0.3 nM	COc1nc(NC23CCC(O)(CC2)C3)nn2ccc(-c3ccc4nnn(CC(F)F)c4c3)c12 [Compound 798, 4-((5-(1-(2,2-Difluoroethyl)-1H-benzo[d][1,2,3]triazol-6-yl)-4-methoxypyrrolo[2,1-f][1,2,4]triazin-2-yl)amino)bicyclo[2.2.1]heptan-1-ol]
1.6 nM	COc1nc(N[C@H]2C[C@@](C)(NC(C)=O)C2)nn2ccc(-c3cnc4nccn4c3)c12 [Compound 934, N-((1s,3s)-3-((5-(Imidazo[1,2-a]pyrimidin-6-yl)-4-methoxypyrrolo[2,1-f][1,2,4]triazin-2-yl)amino)-1-methylcyclobutyl)acetamide]
4.8 nM	c1cnc2cc(-c3ccn4nc(NC5CC6(CCOCC6)C5)nc(OC5COC5)c34)ccc2n1 [Compound 1137, 4-(Oxetan-3-yloxy)-5-(quinoxalin-6-yl)-N-(7-oxaspiro[3.5]nonan-2-yl)pyrrolo[2,1-f][1,2,4]triazin-2-amine]
